Reference: ChEMBL document CHEMBL1134026, “Synthesis and evaluation of novel amidate prodrugs of PMEA and PMPA” (Bioorg Med Chem Lett, 2001)

Tests used:
CCRF-CEM [1] = experiment: In vitro antiviral activity against HIV-2 in CEM cells; type: functional, cell-based; conditions: Homo sapiens
MT4 [2] = experiment: In vitro antiviral activity against HIV-1 in MT-4 cells; type: functional, cell-based; conditions: Homo sapiens
MT4 [3] = experiment: In vitro antiviral activity against HIV-2 in MT-4 cells; type: functional, cell-based; conditions: Homo sapiens
[4] = In vitro cytotoxic concentration against MT-4 cells; type: cell-based, MT4; conditions: human
CCRF-CEM [5] = experiment: In vitro antiviral activity against HIV-1 in CEM cells; type: functional, cell-based; conditions: Homo sapiens
[6] = In vitro cytotoxic concentration against CEM cells; type: cell-based, CCRF-CEM; conditions: human

SMILES | EC50 (CCRF-CEM [1]) [µM] | EC50 (MT4 [2]) [µM] | EC50 (MT4 [3]) [µM] | CC50 [4] [µM] | EC50 (CCRF-CEM [5]) [µM] | CC50 [6] [µM]
COC(=O)[C@@H](Cc1ccccc1)NP(=O)(CO[C@H](C)Cn1cnc2c(N)ncnc21)Oc1ccc(Cl)cc1 (stereo partly specified) | 0.06 | 0.04 | 0.07 | 64 | 0.07 | 26
COC(=O)CNP(=O)(CO[C@H](C)Cn1cnc2c(N)ncnc21)Oc1ccccc1 (stereo partly specified) | 0.31 | 0.58 | 0.15 | 102 | 0.23 | 88.5
COC(=O)[C@@H](C)NP(=O)(CO[C@H](C)Cn1cnc2c(N)ncnc21)Oc1ccccc1 (stereo partly specified) | 0.09 | 0.029 | 0.026 | 71.4 | 0.053 | 27
COC(=O)[C@H](C)NP(=O)(CO[C@H](C)Cn1cnc2c(N)ncnc21)Oc1ccccc1 (stereo partly specified) | 0.38 | 0.99 | 0.65 | 213 | 0.5 | 125
COC(=O)[C@@H](C)NP(=O)(CO[C@H](C)Cn1cnc2c(N)ncnc21)Oc1ccc(Cl)cc1 (stereo partly specified) | 0.12 | 0.15 | 0.26 | 57 | 0.2 | 106
COC(=O)CNP(=O)(COCCn1cnc2c(N)ncnc21)Oc1ccccc1 (stereo unspecified) | 4.5 | 3.6 | 4.8 | 120 | 5.6 | 80
COC(=O)[C@H](C)NP(=O)(COCCn1cnc2c(N)ncnc21)Oc1ccccc1 (stereo partly specified) | 6 | 15 | 7.2 | 120 | 5 | 67
COC(=O)[C@@H](C)NP(=O)(COCCn1cnc2c(N)ncnc21)Oc1ccccc1 (stereo partly specified) | 0.2 | 0.23 | 0.15 | 5.1 | 0.12 | 3.7
C[C@H](Cn1cnc2c(N)ncnc21)OCP(=O)(Oc1ccccc1)Oc1ccccc1 | 4 | 6.2 | 4.9 | > 250 | 4 | > 250
Nc1ncnc2c1ncn2CCOCP(=O)(O)O [ADEFOVIR] | 10 | 7 | 7.5 | 144 | 7 | 69
C[C@H](Cn1cnc2c(N)ncnc21)OCP(=O)(O)O [TENOFOVIR ANHYDROUS] | 3.67 | 2.3 | 1.4 | 197 | 3.67 | > 250
